Reference: patent US20240122939A1, “THERAPIES FOR THE TREATMENT OF DISEASES AND DISORDERS ASSOCIATED WITH ABNORMAL EXPRESSION OF CDKL5 GENE” (THE REGENTS OF THE UNIVERSITY OF CALIFORNIA, priority 2021, published 2024)

Legend:
CDD spheres = assay: Cellular migration after drug treatment (outward radial migration from plated spheres); assay type: cell-based, human; settings: 1 μM, spheres treated for 3 weeks, migration evaluated 8 days after plating
Description: Cellular migration. Three-week old spheres were treated for 3 additional weeks with 1 μM of selected compounds. Cellular migration was evaluated 8 days after spheres were plated onto poly-L-ornithine/laminin-coated plates. The outward radial migration was measured using NeuronJ plugin on the Fiji platform. Next, these lead compounds were investigated for their ability to ameliorate CDD cellular phenotype. Following a similar pharmacological strategy, spheres were treated for 3 weeks, and cellular migration was evaluated after plating.

[1] = tested on: CDD spheroids (cortical neurons and astrocytes derived from human iPSCs); assay: HT calcium oscillation assay in CDD spheroids (high throughput screening, Scalar Perturbation and Parameter Recovery analysis); assay type: cell-based; settings: for SP ranking (Scalar Perturbation): smaller SP = closer to control; for EC50: Homo sapiens, iPSC, six concentrations 0.0003 to 1 μM, nonlinear regression fit, n=4 spheroids per concentration, read-out: EC50 (dose-response of Parameter Recovery percentage)
Excerpt: CDD High Throughput Screening (HTS) platform development. An HTS platform for CDD was developed. Briefly, the HTS system relies on spheroids derived from human iPSCs that comprise a balanced culture of cortical neurons and astrocytes. These spheroids display quantifiable, robust and uniform spontaneous calcium oscillations which correlated with synchronous neuronal activity. The CDD HTS platform uses cells derived from CDD1 and Controll lines.
Chemical library and drug treatment. The compound library used in this study comprises a unique collection of 1112 compounds with biological activity used for neurologic research and associated assays; of which two-thirds are FDA-approved drugs (SelleckChem, Houston, TX, USA). Three-week-old CDD spheroids received chronic treatment three-times per week, during three weeks. All compounds were tested at 1 μM in three technical replicates; vehicle controls (DMSO or water) were included in multiple replicates. The dose-response assay comprehended six concentrations ranging from 0.0003 to 1 μM, in four technical replicates.
HT Calcium oscillation assay. To assess the intracellular calcium oscillations in CDD and control cortical spheroids, cells were incubated with the FLIPR Calcium 6 Kit (Molecular Devices LLC, San Jose, CA, USA). Briefly, cells were pre-loaded with Calcium 6 Dye for 2 h prior to the recording. The dye interacts with intracellular calcium and changes in fluorescence occur according to increased or decreased calcium concentration. The peaks observed correlate with synchronous neural activity in the spheroids. The kinetics of intracellular calcium oscillations was determined using the FLIPR Tetra High-Throughput Cellular Screening System (Molecular Devices LLC): the fluorescence intensity was set at 515-575 nm following excitation at 470-495 nm for 10 min at a frequency of 3 Hz; the exposure time per read was 0.4 s, the gain was set to 30, and the excitation intensity was set to 40%. The instrument temperature was kept at 37° C.
HT screening analysis. A multiparametric analysis of representative descriptors of the intracellular calcium oscillation was performed. The features used include: 1. Peak count; 2. Average (Avg) Peak Height (Amplitude); 3. Peak Height standard deviation (s.d.); 4. Avg Peak Width, 5. Peak Width s.d.; 6. Avg Peak Spacing; 7. Peak Spacing s.d.; 8. Avg Peak Rise Time; 9. Peak Rise Time s.d.; 10. Avg Peak Decay Time; 11. Peak Decay Time s.d.; 12. Class 1 Peak Count; 13. Class 2 Peak Cound; 14. Class 3 Peak Count; 15. Singular Peak Count; 16. Irregular Peak Count, and 17. Subpeak Count. For peak classification, Class 1 Peak display 100-66% of max peak height, while Class 2 and Class 3, 66-33% and 33-15%, respectively. To determine the Scalar Perturbation, the data was normalized by dividing raw parameters by the median values of controls from the same plate. Each parameter was standardized by z-score of normalized and log-transformed control values. Next, the Euclidean norm between selected parameters was calculated and averaged the Scalar Perturbation score among replicates. In the Parameter Recovery, max/min boundaries from vehicle Control were determined from corresponding plate. For each replicate, we summed the number of parameter found to be within the max/min boundaries of the Control. Next, for each replicate we divided the sum of the recovered parameter by the total number of parameters and established the percentage of parameters recovered to the Control boundaries and, averaged Parameter Recovery percentages between compound replicates.
Next, a unique library of 1112 neuronal signaling compounds was screened by chronically treating 3-week-old CDD spheroids in triplicate at 1 μM for 3 weeks (FIG. 5D; FIG. 10). The calcium peaks' baseline features were determined solely in the presence of each vehicle (DMSO or water) to avoid any confounding effect on the oscillatory activity (FIG. 5E and FIG. 10A-D). […]

CDD spheroids = assay: HT cell viability (CellTiter Glo 3D Cell Viability Assay); assay type: cell-based, human; settings: 1 μM, 3 weeks treatment, CDD spheroids at 6 weeks of differentiation
Description: HT cell viability. To determine any cytotoxic effect of the drug treatment on the neural culture, the CellTiter Glo 3D Cell Viability Assay (Promega, Madison, WI, USA) was performed according to the manufacturer's instructions. Briefly, following the intracellular calcium oscillation recording, the spheroids were extensively washed with PBS for removal of the calcium dye. Next, cells were incubated with CellTiter Glo Reagent for 30 min at room temperature and the number of viable cells was estimated based on the amount of ATP present in the culture. The luminescent signal was captured using a PHERAstar FSX Microplate Reader (BMG Labtech, Ortenberg, Germany).
Next, a unique library of 1112 neuronal signaling compounds was screened by chronically treating 3-week-old CDD spheroids in triplicate at 1 μM for 3 weeks (FIG. 5D; FIG. 10). The calcium peaks' baseline features were determined solely in the presence of each vehicle (DMSO or water) to avoid any confounding effect on the oscillatory activity (FIG. 5E and FIG. 10A-D). Similarly, the result from each compound was normalized against its vehicle control (DMSO or water). To detect potential toxic effects of specific drugs, spheroid size and cell viability were monitored (FIG. 5F-G).

[2] = tested on: Cdkl5 knockout mouse neurons; settings: cited from earlier work
[3] = 1112 compounds screened at 1 μM, chronic treatment for 3 weeks, 3-week-old CDD spheroids

Compound	rescue of outward radial cellular migration defects in CDD (CDD spheres)	SP ranking (Scalar Perturbation) [1, 3]	EC50 [1]	effect on cell viability (CDD spheroids)	restoration of CDKL5-dependent synaptic defects [2]	PR ranking (Parameter Recovery) ([1]; 1112 compounds screened at 1 μM, chronic treatment for 3 weeks, 3-week-old CDD spheroids, higher PR = closer to control)
COc1cc2c(cc1OC)CC(=O)N(CCCN(C)C[C@H]1Cc3cc(OC)c(OC)cc31)CC2 [Ivabradine]	able to rescue outward radial cellular migration defects	10	41 nM	no effect on cell viability	–	–
O=C(O[C@H]1CN2CCC1CC2)N1CCc2ccccc2[C@@H]1c1ccccc1 [Solifenacin]	able to rescue outward radial cellular migration defects	28	–	no effect on cell viability	–	–
N#Cc1ccc2[nH]c(O)c(-c3ccc(CN4CCOCC4)cn3)c2c1 [AZD1080]	able to rescue outward radial cellular migration defects	12	–	no effect on cell viability	–	–
COc1ccc2c(c1)[nH]c1c(C)nccc12 [Harmine]	–	first	–	excluded from the list of top candidates due to its effect on cell survival	restore CDKL5-dependent synaptic defects	second
C[C@H](NC(=O)CCC(F)(F)F)C(=O)N[C@@H]1C(=O)N(CCO)c2ncccc2-c2ccccc21 [Crenigacestat]	able to rescue outward radial cellular migration defects	5	883 nM	no effect on cell viability	–	–
